Assay results reported in patent publication US20240279232A1, “USE OF SUBSTITUTED 5-(4-METHYL-6-PHENYL-4H-BENZO[F]IMIDAZO[1,5-A][1,4] DIAZEPIN-3-YL)-1,2,4-O[…] THE TREATMENT OF INFLAMMATORY CONDITIONS” (priority 2021, published 2024).
Like-named read-outs stand apart in the source and are kept apart here.

What was measured:
KOR (κ opioid receptor) = molecular target: T1, KOR (κ opioid receptor) (Homo sapiens, UniProt P41145); assay: KOR radioligand binding ([3H]-U69593, HEK293 cell homogenates)
T1 construct: expressed in transfected cells; host or cells: HEK293 (stably transfected)
T1 sequence (P41145 whole entry): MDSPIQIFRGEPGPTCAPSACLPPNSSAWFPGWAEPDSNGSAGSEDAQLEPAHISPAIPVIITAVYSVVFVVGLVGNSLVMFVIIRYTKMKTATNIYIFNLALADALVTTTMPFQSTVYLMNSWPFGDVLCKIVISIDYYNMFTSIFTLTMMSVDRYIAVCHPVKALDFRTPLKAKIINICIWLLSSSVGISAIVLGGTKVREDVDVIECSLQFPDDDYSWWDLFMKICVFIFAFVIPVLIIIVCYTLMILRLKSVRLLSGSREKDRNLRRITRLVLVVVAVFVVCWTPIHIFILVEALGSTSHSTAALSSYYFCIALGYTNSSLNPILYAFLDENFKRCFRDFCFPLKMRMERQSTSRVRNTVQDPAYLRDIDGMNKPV
Experimental: (§1) Radioligand binding assays. Detailed protocols for the primary and secondary radioligand binding assays can be found in the National Institute of Mental Health's Psychoactive Drug Screening Program (NIMH PDSP) Assay Protocol Book (Roth, 2018). Briefly, primary and secondary radioligand binding assays are carried out in a final of volume of 125 μL per well in appropriate binding buffer. […] Total binding and nonspecific binding are determined in the absence and presence of 10 μM of appropriate reference compound (Naltrindole DOR, Salvinorin A KOR and DAMGO MOR). In brief, plates are usually incubated at room temperature and in the dark for 90 min. Reactions are stopped by vacuum filtration onto 0.3% polyethyleneimine (PEI) soaked 96-well filter mats using a 96-well Filtermate harvester, followed by three washes with cold PBS buffer. Scintillation cocktail is then melted onto the microwave-dried filters on a hot plate and radioactivity counted in a Microbeta counter. The data (n=6) were analyzed by nonlinear regression.
(§2) Ligand affinities were determined for KOR (κ opioid receptor), DOR (δ opioid receptor), and MOR (μ opioid receptor) using radioligand binding assays at a screening concentration of 10,000 nM. For these assays, cell homogenates from HEK293 cells that overexpressed KOR, MOR, and DOR were used in combination with [^3H]-U69593, [^3H]-DAMGO, and [^3H]-DADLE, respectively Compounds that exceeded more than 50% radioligand displacement were investigated further in concentration-dependent experiments to determine Ki values. Gamma aminobutyric acid type A receptor (GABAAR) binding was determined with rat brain homogenate and ^3H-flunitrazepam. Flunitrazepam binds GABAAR subtypes that consists of two α and two β subunits and one γ or δ subunit. Strong affinities to α1-3,5,6β1-3γ1-y/δ GABAARS have been reported for flunitrazepam. The […] GABAAR subtype expression in the brain includes 43% α1β2γ2, 15% α2β3γ2+8% α2βγ1, 10% α3β3γ2, 6% α4βγ/δ, 4% α5β3γ2, and 4% α6β2γ2/δ. Therefore, compounds with high affinity toward the synaptic benzodiazepine-sensitive receptors (BZR) predominately bind α1-3β2-3γ1-2 GABAARs. Alternatively, compounds with weak BZR binding might be selective for α4-6βγ/δ GABAARs.
(§3) Psychoactive Drug Screening Program. Detailed protocols for the primary and secondary radioligand binding assays can be found in the National Institute of Mental Health's Psychoactive Drug Screening Program (NIMH PDSP) Assay Protocol Book. Briefly, primary and secondary radioligand binding assays are carried out in a final of volume of 125 μL per well in appropriate binding buffer. The radioactive ligand concentration is close to the Kd. Total binding and nonspecific binding are determined in the absence and presence of 10 μM of appropriate reference compound, respectively. In brief, plates are usually incubated at room temperature and in the dark for 90 min. Reactions are stopped by vacuum filtration onto 0.3% polyethyleneimine (PEI) soaked 96-well filter mats using a 96-well Filtermate harvester, followed by three washes with cold PBS buffer. Scintillation cocktail is then melted onto the microwave-dried filters on a hot plate and radioactivity counted in a Microbeta counter. The data (n=6) were analyzed by nonlinear regression.

MOR (μ opioid receptor) = molecular target: T2, MOR (μ opioid receptor) (Homo sapiens, UniProt P35372); assay: MOR radioligand binding ([3H]-DAMGO, HEK293 cell homogenates); conditions: Percent inhibition at 10,000 nM; [3H]-DAMGO
T2 construct: expressed in transfected cells; host or cells: HEK293
T2 sequence (P35372 whole entry, species assumed): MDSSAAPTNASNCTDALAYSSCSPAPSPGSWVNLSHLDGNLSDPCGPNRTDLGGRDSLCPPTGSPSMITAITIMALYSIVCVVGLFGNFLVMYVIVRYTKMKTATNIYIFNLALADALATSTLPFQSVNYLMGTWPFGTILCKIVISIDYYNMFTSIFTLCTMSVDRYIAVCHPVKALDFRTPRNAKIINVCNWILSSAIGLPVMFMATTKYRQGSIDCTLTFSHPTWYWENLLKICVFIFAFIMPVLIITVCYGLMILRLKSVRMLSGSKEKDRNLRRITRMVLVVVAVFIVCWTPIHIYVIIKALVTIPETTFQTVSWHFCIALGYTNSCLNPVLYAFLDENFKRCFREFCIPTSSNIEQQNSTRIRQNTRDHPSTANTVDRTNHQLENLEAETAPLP
Experimental: as §1, §2, §3

DOR (δ opioid receptor) = molecular target: T3, DOR (δ opioid receptor) (Homo sapiens, UniProt P41143); assay: DOR radioligand binding ([3H]-DADLE, HEK293 cell homogenates); conditions: Percent inhibition at 10,000 nM; [3H]-DADLE
T3 construct: expressed in transfected cells; host or cells: HEK293
T3 sequence (P41143 whole entry): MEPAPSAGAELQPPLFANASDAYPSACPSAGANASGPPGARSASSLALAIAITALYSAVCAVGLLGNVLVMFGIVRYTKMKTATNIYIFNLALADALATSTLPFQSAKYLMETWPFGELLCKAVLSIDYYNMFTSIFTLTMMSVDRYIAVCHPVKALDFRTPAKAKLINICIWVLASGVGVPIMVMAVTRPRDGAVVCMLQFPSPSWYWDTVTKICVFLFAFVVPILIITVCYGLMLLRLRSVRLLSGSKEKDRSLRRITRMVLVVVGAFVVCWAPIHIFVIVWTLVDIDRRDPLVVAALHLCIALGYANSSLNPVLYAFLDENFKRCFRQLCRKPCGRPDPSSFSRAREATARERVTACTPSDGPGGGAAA
Experimental: as §1, §2, §3

[1] = system: BZR (benzodiazepine site of GABAAR); assay: GABAAR/BZR binding, rat brain homogenate with 3H-flunitrazepam; conditions: rat brain homogenate, 3H-flunitrazepam; for BZR %: Percent inhibition at 10,000 nM
Experimental: as §2, §3

Mouse microglia = assay: Cell viability (CellTiter-Glo), mouse microglia; assay type: cell-based; conditions: CellTiter-Glo, activated microglia
Experimental: Next, a library of GABAAR ligands was investigated to identify compounds that reduce the production of NO as a marker of anti-inflammatory activity. […] NO was quantified with a Greiss assay. Cell viability was determined with CellTiter-Glo.
Nitric oxide production (Griess assay) and viability assay (CellTiter-Glo). 80 μL of mouse microglia culture (1×10^6 cells/mL) was plated into sterile 384 well plates representing non-activated wells. The remaining culture was activated with 50 ng/ml LPS (Invivogen, NC9836) and 150 U/mL IFNγ (R&D Systems, 485MI100) and distributed into the 384 well plates. […] Assay plates were incubated for approximately 24 hours (unless otherwise noted) at 37° C., centrifuged, and 40 μL of supernatant transferred to a new plate for analysis using the Griess Assay (Promega, Madison, WI). Absorbance at 530 nm was measured using a TECAN Infinite M1000 plate reader. The remaining 40 μL containing cells was analyzed for toxicity by the CellTiter-Glo Assay (Promega, Madison, WI). Luminescence was read using a TECAN Infinite M1000 plate reader.

[2] = Percent inhibition at 10,000 nM, [3H]-U69593
[3] = concentration-dependent, [3H]-U69593, read-out: KOR (Ki)

SMILES	inhibition at 10 µM (KOR (κ opioid receptor); [2])	Ki (KOR (κ opioid receptor); [3])	inhibition at 10 µM (MOR (μ opioid receptor))	inhibition at 10 µM (DOR (δ opioid receptor))	BZR % [1]	Ki [1]	KOR % (KOR (κ opioid receptor); [2])	MOR % (MOR (μ opioid receptor))	DOR % (DOR (δ opioid receptor))	Ki (KOR (κ opioid receptor))	cell viability / cytotoxicity in the NO competition experiments (in words) (Mouse microglia)
Brc1ccc2c(c1)C(c1ccccc1)=NCc1c(-c3cnco3)ncn1-2 [KRM-II-73]	83%	736 nM	11%	32%	97%	45 nM					
Brc1ccc2c(c1)C(c1ccccn1)=NCc1c(-c3cnco3)ncn1-2 [KRM-II-97]	62%	1960 nM	18%	8%	93%	140 nM					
Cc1ncoc1-c1ncn2c1CN=C(c1ccccc1F)c1cc(Br)ccc1-2 [KRM-III-59]		408 nM			96%	20 nM	73%	0%	11%		
C#Cc1ccc2c(c1)C(c1ccccc1F)=NCc1c(-c3ocnc3C)ncn1-2 [KRM-III-65]	64%	879 nM	0%	16%	96%	45 nM					
Cc1ncoc1-c1ncn2c1CN=C(c1ccccc1)c1cc(Br)ccc1-2 [KRM-III-66]	67%	756 nM	12%	11%	86%	49 nM					
C#Cc1ccc2c(c1)C(c1ccccn1)=NCc1c(-c3cnco3)ncn1-2 [KRM-III-67]	48%		30%	3%	71%	144 nM					
C#Cc1ccc2c(c1)C(c1ccccn1)=NCc1c(-c3ocnc3C)ncn1-2 [KRM-III-79]	9%		32%	1%	81%	308 nM					
C#Cc1ccc2c(c1)C(c1ccccc1F)=N[C@@H](C)c1c(C(=O)NC)ncn1-2 [MP-II-023]	91%	119 nM	0%	16%	97%	37 nM					
C#Cc1ccc2c(c1)C(c1ccccn1)=NCc1c(C(=O)OC(C)C)ncn1-2 [MP-II-068]	85%	550 nM	0%	34%	97%	42 nM					
C#Cc1ccc2c(c1)C(c1ccccc1F)=N[C@H](C)c1c(C(=O)OC)ncn1-2 [MP-III-004]	76%	599 nM	0%	24%	78%	445 nM					
C#Cc1ccc2c(c1)C(c1ccccc1F)=N[C@@H](C)c1c(C(N)=O)ncn1-2 [MP-III-018.B]	51%	2780 nM	2%	10%	97%	17 nM					
C#Cc1ccc2c(c1)C(c1ccccc1F)=N[C@H](C)c1c(C(N)=O)ncn1-2 [MP-III-019.B]	62%	1530 nM	2%	0%	94%	54 nM					
C#Cc1ccc2c(c1)C(c1ccccc1F)=N[C@@H](C)c1c(C(=O)OC)ncn1-2 [MP-III-021]	93%	122 nM	0%	22%	88%	219 nM					
C#Cc1ccc2c(c1)C(c1ccccn1)=NCc1c(C(=O)OC)ncn1-2 [MP-III-024]	43%		0%	24%	81%	277 nM					
COC(=O)c1ncn2c1[C@@H](C)N=C(c1ccccc1F)c1cc(Br)ccc1-2 [MP-III-058]	84%		0%	4%	86%	290 nM					
C#Cc1ccc2c(c1)C(c1ccccn1)=NCc1c(-c3nc(C)no3)ncn1-2 [MP-III-085]	40%		0%	0%	82%	357 nM					
C#Cc1ccc2c(c1)C(c1ccccc1F)=N[C@H](C)c1c(C(=O)O)ncn1-2 [SH-053-2'F-R-CH3-Acid]	16%		0%	0%	93%	37 nM					
C#Cc1ccc2c(c1)C(c1ccccc1F)=N[C@H](C)c1c(C(=O)OCC)ncn1-2 [SH-053-2′F-R-CH3]	89%	240 nM	28%	32%	85%	379 nM					
C#Cc1ccc2c(c1)C(c1ccccc1F)=N[C@@H](C)c1c(C(=O)OCC)ncn1-2 [SH-053-2′F-S-CH3]	93%	90 nM	7%	36%	92%	111 nM					
C#Cc1ccc2c(c1)C(c1ccccc1F)=N[C@@H](C)c1c(C(=O)O)ncn1-2 [SH-053-2′P-S-CH3 Acid]	20%		0%	18%	93%	29 nM					
CCOC(=O)c1ncn2c1[C@@H](C)N=C(c1ccccc1F)c1cc(Br)ccc1-2 [SH-I-047]	82%		16%	0%	84%	238 nM				86 nM	
CCOC(=O)c1ncn2c1[C@H](C)N=C(c1ccccc1F)c1cc(Br)ccc1-2 [SH-I-048B]	95%		0%	0%	61%	96 nM				63 nM	
Fc1ccccc1C1=NCc2c(-c3cnco3)ncn2-c2ccc(Br)cc21 [SH-I-85]	91%	162 nM	16%	33%	99%	11 nM					
C#Cc1ccc2c(c1)C(c1ccccn1)=NCc1c(C(=O)O)ncn1-2 [SR-II-54]	9%		8%	1%	80%	69 nM					
C[C@@H]1C[C@H]2[C@@H]3CCC4=CC(=O)C=C[C@]4(C)[C@@]3(F)[C@@H](O)C[C@]2(C)[C@@]1(O)C(=O)CO [dexamethasone, reference compound]											without cell toxicity
